Data: patent publication US7094524B2, “Thermally development imaging materials having backside stabilizers” (Eastman Kodak Company, priority 2003, dated 2006)

Assay: pH of 0.005 molar solution in 15% methanol/85% water
Assay type: physicochemical
Excerpt: TABLE I also includes vapor pressure (VP) and pKa values for the various backside stabilizers.

SMILES	pH
C1CNCCN1 [AB-1]	10.4
C1CN2CCN1CC2 [AB-2]	9.8
CN(C)C(=N)N(C)C [AB-3]	11.8
c1ccc(CN(Cc2ccccc2)Cc2ccccc2)cc1 [AB-9]	8.6
c1ccc(Nc2ccccn2)nc1 [AB-7]	8.5
OCCN(CCO)CCO [AB-5]	9.1
C1CCC2=NCCCN2CC1 [AB-6, 1,8-diazabicyclo[5.4.0]undec-7-ene]	11.8
N=C(Nc1ccccc1)Nc1ccccc1 [AB-8]	10.6
